Laboratory results reported in PubChem BioAssay AID1259411 (Chemical Carcinogenesis Research Information System (CCRIS), 2018).
Calls of active or inactive are those of the source. No rule for the calls is given here.

Tested on: rodent carcinogenicity bioassays, tumor incidence
Assay: CCRIS carcinogenicity studies
In short: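 NCI-built, expert-reviewed records of carcinogenicity and related test outcomes (mutagenicity, tumor promotion/inhibition) compiled from published and report sources, historical span 1985-2011, not updated.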

C1O[C@@H]1[C@H]1CO1
carcinogen call (Species: MOUSE, Strain/Sex: B6C3F1/FEMALE, Route: INHALATION, Dose: 0, 2.5, 5.0 PPM 6 HR/D 5 D/WK FOR 6 WK (STUDY DURATION: 84 WK), Dose: 0, 2.5, 5.0 PPM 6 HR/D 5 D/WK FOR 6 WK (STUDY DURATION: 84 WK), Tumor Site: Type of Lesion: HARDERIAN GLAND: TUMOR): active; positive | carcinogen call (Species: RAT, Strain/Sex: SPRAGUE-DAWLEY/FEMALE, Route: INHALATION, Dose: 0, 2.5, 5.0 PPM 6 HR/D 5 D/WK FOR 6 WK (STUDY DURATION: 84 WK), Dose: 0, 2.5, 5.0 PPM 6 HR/D 5 D/WK FOR 6 WK (STUDY DURATION: 84 WK), Tumor Site: Type of Lesion: NASAL MUCOSA: TUMOR): active; positive

CCCCN(N=O)C(N)=O
carcinogen call (Species: MOUSE (NEWBORN), Strain/Sex: CD-1/MALE,FEMALE, Route: SUBCUTANEOUS, Dose: 333 MG/KG IN 1% GEL SOLN WITHIN 24 HR OF BIRTH, Tumor Site: Type of Lesion: LUNG: ADENOMA, ADENOCARCINOMA, LIVER: ADENOMA): active; positive | carcinogen call (Species: RAT, Strain/Sex: F344/FEMALE, Route: GAVAGE, Dose: 0, 15 MG/ML (TOTAL DOSE 0; 1.7 MMOL) IN 2 ML ETHYL ACETATE AND CORN OIL (1:2) 2/WK FOR 40 WK (STUDY DURATION: LIFETIME), Dose: 0, 15 MG/ML (TOTAL DOSE 0; 1.7 MMOL) IN 2 ML ETHYL ACETATE AND CORN OIL (1:2) 2/WK FOR 40 WK (STUDY DURATION: LIFETIME), Tumor Site: Type of Lesion: FORESTOMACH: SQUAMOUS CELL CARCINOMA, LUNG: TUMOR, MAMMARY GLAND: TUMOR, UTERUS: TUMOR, Tumor Site: Type of Lesion: FORESTOMACH: SQUAMOUS CELL CARCINOMA, LUNG: TUMOR, MAMMARY GLAND: TUMOR, UTERUS: TUMOR): active; positive | carcinogen call (Species: RAT, Strain/Sex: F344/FEMALE, Route: GAVAGE, Dose: 0, 15 MG/ML IN 0.2 ML ETHYL ACETATE AND CORN OIL 2/WK FOR 40 WK (STUDY DURATION: LIFESPAN), Tumor Site: Type of Lesion: FORESTOMACH: TUMOR, LUNG: TUMOR, MAMMARY GLAND: TUMOR, UTERUS: TUMOR, Tumor Site: Type of Lesion: FORESTOMACH: TUMOR, LUNG: TUMOR, MAMMARY GLAND: TUMOR, UTERUS: TUMOR): active; positive | carcinogen call (Species: RAT, Strain/Sex: F344/MALE, Route: GAVAGE, Dose: 0, 15 MG/ML (TOTAL DOSE 0; 1.7 MMOL) IN 2 ML ETHYL ACETATE AND CORN OIL (1:2) 2/WK FOR 40 WK (STUDY DURATION: LIFETIME), Dose: 0, 15 MG/ML (TOTAL DOSE 0; 1.7 MMOL) IN 2 ML ETHYL ACETATE AND CORN OIL (1:2) 2/WK FOR 40 WK (STUDY DURATION: LIFETIME), Tumor Site: Type of Lesion: FORESTOMACH: SQUAMOUS CELL CARCINOMA, LUNG: TUMOR): active; positive | carcinogen call (Species: RAT, Strain/Sex: F344/MALE, Route: GAVAGE, Dose: 0, 15 MG/ML IN 0.2 ML ETHYL ACETATE AND CORN OIL 2/WK FOR 40 WK (STUDY DURATION: LIFESPAN), Tumor Site: Type of Lesion: FORESTOMACH: TUMOR, LUNG: TUMOR): active; positive

CC(C)(C)NC[C@H](O)COc1cccc2c1CCCC2=O
carcinogen call (Species: MOUSE, Strain/Sex: SWISS/MALE, Route: ORAL, Dose: 0, 12, 50, 200 MG/KG/D IN DIET FOR 80 WK (STUDY DURATION: 80 WK), Dose: 0, 12, 50, 200 MG/KG/D IN DIET FOR 80 WK (STUDY DURATION: 80 WK)): inactive; negative | carcinogen call (Species: RAT, Strain/Sex: WISTAR/FEMALE, Route: ORAL, Dose: 0, 0.5, 2, 5 MG/KG/D IN DIET FOR 2 YR (STUDY DURATION: 2 YR), Dose: 0, 0.5, 2, 5 MG/KG/D IN DIET FOR 2 YR (STUDY DURATION: 2 YR)): inactive; negative | carcinogen call (Species: RAT, Strain/Sex: WISTAR/FEMALE, Route: ORAL, Dose: 0, 5, 30, 180 MG/KG/D IN DIET FOR 2 YR (STUDY DURATION: 2 YR), Dose: 0, 5, 30, 180 MG/KG/D IN DIET FOR 2 YR (STUDY DURATION: 2 YR)): inactive; negative | carcinogen call (Species: RAT, Strain/Sex: WISTAR/MALE, Route: ORAL, Dose: 0, 0.5, 2, 5 MG/KG/D IN DIET FOR 2 YR (STUDY DURATION: 2 YR), Dose: 0, 0.5, 2, 5 MG/KG/D IN DIET FOR 2 YR (STUDY DURATION: 2 YR)): inactive; negative | carcinogen call (Species: RAT, Strain/Sex: WISTAR/MALE, Route: ORAL, Dose: 0, 5, 30, 180 MG/KG/D IN DIET FOR 2 YR (STUDY DURATION: 2 YR), Dose: 0, 5, 30, 180 MG/KG/D IN DIET FOR 2 YR (STUDY DURATION: 2 YR), Tumor Site: Type of Lesion: LIVER: HEPATOMA): active; positive

OCCOCCO
carcinogen call (Species: RAT, Strain/Sex: F344/FEMALE, Route: ORAL, Dose: 0, 1.25, 2.5% IN DRINKING WATER FOR 108 WK (STUDY DURATION: 108 WK), Dose: 0, 1.25, 2.5% IN DRINKING WATER FOR 108 WK (STUDY DURATION: 108 WK)): inactive; negative | carcinogen call (Species: RAT, Strain/Sex: F344/MALE, Route: ORAL, Dose: 0, 1.25, 2.5% IN DRINKING WATER FOR 108 WK (STUDY DURATION: 108 WK), Dose: 0, 1.25, 2.5% IN DRINKING WATER FOR 108 WK (STUDY DURATION: 108 WK)): inactive; negative

CO[Si](CCCOCC1CO1)(OC)OC (stereo not drawn)
carcinogen call (Species: MOUSE, Strain/Sex: C3H/MALE, Route: DERMAL, Dose: 0, 5 MG IN ACETONE 3/WK FOR DURATION OF STUDY (STUDY DURATION: LIFETIME)): inactive; negative

c1ccc(N=Nc2ccccc2)cc1
carcinogen call (Species: MOUSE, Strain/Sex: B6C3F1/FEMALE, Route: ORAL, Dose: 0, 208, 545 PPM IN DIET, TWA, Dose: 0, 208, 545 PPM IN DIET, TWA): inactive; negative | carcinogen call (Species: MOUSE, Strain/Sex: B6C3F1/MALE, Route: ORAL, Dose: 0, 200, 400 PPM IN DIET, Dose: 0, 200, 400 PPM IN DIET): inactive; negative | carcinogen call (Species: RAT, Strain/Sex: F344/FEMALE, Route: ORAL, Dose: 0, 200, 400 PPM IN DIET FOR 106 WK (STUDY DURATION: 106 WK), Dose: 0, 200, 400 PPM IN DIET FOR 106 WK (STUDY DURATION: 106 WK), Tumor Site: Type of Lesion: SPLEEN OR PERITONEUM: SARCOMA): active; positive | carcinogen call (Species: RAT, Strain/Sex: F344/FEMALE, Route: ORAL, Dose: 0, 200, 400 PPM IN DIET, Dose: 0, 200, 400 PPM IN DIET, Tumor Site: Type of Lesion: SPLEEN: FIBROSARCOMA, OSTEOSARCOMA, PERITONEAL CAVITY: SARCOMA): active; positive | carcinogen call (Species: RAT, Strain/Sex: F344/MALE, Route: ORAL, Dose: 0, 200, 400 PPM IN DIET FOR 106 WK (STUDY DURATION: 106 WK), Dose: 0, 200, 400 PPM IN DIET FOR 106 WK (STUDY DURATION: 106 WK), Tumor Site: Type of Lesion: SPLEEN OR PERITONEUM: SARCOMA): active; positive | carcinogen call (Species: RAT, Strain/Sex: F344/MALE, Route: ORAL, Dose: 0, 200, 400 PPM IN DIET, Dose: 0, 200, 400 PPM IN DIET, Tumor Site: Type of Lesion: SPLEEN: FIBROSARCOMA, PERITONEAL CAVITY: SARCOMA): active; positive

Cc1cc2c(nc1N)[nH]c1ccccc12
carcinogen call (Species: MOUSE, Strain/Sex: CDF1/FEMALE, Route: ORAL, Dose: 0, 0.08% IN DIET FOR UP TO 685 D (STUDY DURATION: 685 D), Tumor Site: Type of Lesion: LIVER: HEPATOCELLULAR ADENOMA OR CARCINOMA, BLOOD VESSELS: HEMANGIOENDOTHELIOMA OR HEMANGIOENDOTHELIAL SARCOMA): active; positive | carcinogen call (Species: MOUSE, Strain/Sex: CDF1/MALE, Route: ORAL, Dose: 0, 0.05% IN DIET FOR UP TO 685 D (STUDY DURATION: 685 D), Tumor Site: Type of Lesion: LIVER: HEPATOCELLULAR ADENOMA OR CARCINOMA, BLOOD VESSELS: HEMANGIOENDOTHELIOMA OR HEMANGIOENDOTHELIAL SARCOMA): active; positive | carcinogen call (Species: RAT, Strain/Sex: F344/MALE, Route: ORAL, Dose: 0, 0.01, 0.02% IN DIET FOR 100 WK (STUDY DURATION: 100 WK), Dose: 0, 0.01, 0.02% IN DIET FOR 100 WK (STUDY DURATION: 100 WK), Tumor Site: Type of Lesion: LIVER: HEPATOCELLULAR CARCINOMA, PANCREAS: ACINAR CELL ADENOMA, SKIN (SUBCUTIS): FIBROMA, Tumor Site: Type of Lesion: LIVER: HEPATOCELLULAR CARCINOMA, PANCREAS: ACINAR CELL ADENOMA, SKIN (SUBCUTIS): FIBROMA): active; positive

CCSCC[C@H](N)C(=O)O
carcinogen call (Species: RAT, Strain/Sex: SPRAGUE-DAWLEY/MALE,FEMALE, Route: ORAL, Dose: 0.25% IN DIET FOR 38 WK (AVE), Tumor Site: Type of Lesion: LIVER: CARCINOMA): active; positive | carcinogen call (Species: RAT, Strain/Sex: SPRAGUE-DAWLEY/MALE, Route: ORAL, Dose: 0, 0.05% IN CHOLINE-FREE DIET FOR 12 MO (STUDY DURATION: 12 MO), Tumor Site: Type of Lesion: LIVER: HEPATOCELLULAR CARCINOMA): active; positive | carcinogen call (Species: RAT, Strain/Sex: SPRAGUE-DAWLEY/MALE, Route: ORAL, Dose: 0, 0.1% IN CHOLINE-FREE DIET FOR 12 MO (STUDY DURATION: 12 MO)): inactive; negative | carcinogen call (Species: RAT, Strain/Sex: STRAIN-CD/MALE, Route: ORAL, Dose: 0.2% IN NONTOXIC PEANUT MEAL DIET FOR 380 D, Tumor Site: Type of Lesion: LIVER): active; positive
